# Measured values as given in publication PMC12669672, “Structural insights into selective and dual antagonism of EP2 and EP4 prostaglandin receptors” (The EMBO Journal, 2025).
# Values joined by “and” are separate entries in the source; they are usually repeats but may differ in a detail not shown here. Identical values can stand only once. “Also recorded” adds a separate entry of the source. Like-named read-outs stand apart in the source and are kept apart here.
# Columns and labels:
# Assay in all cases: GloSensor cAMP assay, antagonism of PGE2-induced cAMP
# Assay type in all cases: cell-based
# EP2 M116A = molecular target: T1, EP2 M116A (Homo sapiens, UniProt P43116, M116A); details: 1 h, single experiments 1st-3rd, Fig. 3D, read-out: % cAMP activity (normalized to WT)
# T1 construct: The full-length EP2 or EP4 was cloned into the pcDNA3.1 vector; FLAG (N); expressed in transfected cells; host or cells: AD293 cells
# T1 sequence (P43116 whole entry M116A): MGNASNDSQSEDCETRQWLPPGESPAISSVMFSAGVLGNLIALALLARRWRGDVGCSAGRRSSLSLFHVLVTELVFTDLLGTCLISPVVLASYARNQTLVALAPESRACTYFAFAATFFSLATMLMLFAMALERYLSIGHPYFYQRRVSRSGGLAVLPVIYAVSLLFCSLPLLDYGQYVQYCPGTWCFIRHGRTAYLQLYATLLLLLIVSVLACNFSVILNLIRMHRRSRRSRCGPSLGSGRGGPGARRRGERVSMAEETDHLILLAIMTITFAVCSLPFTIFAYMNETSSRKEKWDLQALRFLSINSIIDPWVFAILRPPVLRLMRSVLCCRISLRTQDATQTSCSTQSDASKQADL
# Procedure: (§1) The full-length EP2 or EP4 was cloned into the pcDNA3.1 vector (Invitrogen), incorporating an N-terminal FLAG tag. AD293 cells were seeded in six-well plates containing DMEM supplemented with 10% dialyzed FBS 1 day prior to transfection. Following overnight growth, cells were transfected with a 1:1 ratio of receptor construct and GloSensor22F cAMP biosensor (Promega) plasmids.
# (§2) Twenty-four hours post-transfection, the cells were transferred to CO2-independent media containing 2% GloSensor cAMP Reagent (Promega) and distributed into 384-well assay plates at a density of 4000 cells per well in 10 μL. […] The plates were then incubated at 37 °C for an additional hour before luminescence measurements were taken using an EnVision plate reader.
# (§3) Data analysis was performed using GraphPad Prism software v8.0.1. A nonlinear regression analysis, employing a sigmoidal dose–response model, was conducted to determine the Emax values and half-maximum inhibitory concentrations (IC50) for each compound tested.
# EP4 WT = molecular target: T2, EP4 WT (Homo sapiens, UniProt P35408); details: 1 h, single experiments 1st-3rd, Fig. S1A
# T2 construct: The full-length EP2 or EP4 was cloned into the pcDNA3.1 vector; FLAG (N); expressed in transfected cells; host or cells: AD293 cells
# T2 sequence (P35408 whole entry): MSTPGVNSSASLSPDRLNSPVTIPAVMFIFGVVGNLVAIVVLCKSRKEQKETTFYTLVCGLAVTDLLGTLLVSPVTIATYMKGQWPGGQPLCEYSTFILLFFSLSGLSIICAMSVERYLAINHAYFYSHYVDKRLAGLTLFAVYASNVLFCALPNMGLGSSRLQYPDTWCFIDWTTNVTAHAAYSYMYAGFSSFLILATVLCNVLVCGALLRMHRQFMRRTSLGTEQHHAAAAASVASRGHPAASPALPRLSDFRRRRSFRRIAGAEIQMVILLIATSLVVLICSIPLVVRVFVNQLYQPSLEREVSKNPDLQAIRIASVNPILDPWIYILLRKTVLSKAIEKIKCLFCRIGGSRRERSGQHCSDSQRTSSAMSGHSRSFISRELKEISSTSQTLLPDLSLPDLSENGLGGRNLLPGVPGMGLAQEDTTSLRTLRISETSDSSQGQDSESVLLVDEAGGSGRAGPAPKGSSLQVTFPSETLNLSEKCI
# Procedure: as §1, §2, §3
# EP2 W186A = molecular target: T3, EP2 W186A (Homo sapiens, UniProt P43116, W186A); details: 1 h, single experiments 1st-3rd, Fig. 3D, read-out: % cAMP activity (normalized to WT)
# T3 construct: The full-length EP2 or EP4 was cloned into the pcDNA3.1 vector; FLAG (N); expressed in transfected cells; host or cells: AD293 cells
# T3 sequence (P43116 whole entry W186A): as the sequence (P43116 whole entry M116A) above, with A116M, W186A counted along it
# Procedure: as §1, §2, §3
# EP2 S305A = molecular target: T4, EP2 S305A (Homo sapiens, UniProt P43116, S305A); details: single experiments 1st-3rd
# T4 construct: The full-length EP2 or EP4 was cloned into the pcDNA3.1 vector; FLAG (N); expressed in transfected cells; host or cells: AD293 cells
# T4 sequence (P43116 whole entry S305A): as the sequence (P43116 whole entry M116A) above, with A116M, S305A counted along it
# Procedure: as §1, §2, §3
# EP2 S86A = molecular target: T5, EP2 S86A (Homo sapiens, UniProt P43116, S86A); details: single experiments 1st-3rd
# T5 construct: The full-length EP2 or EP4 was cloned into the pcDNA3.1 vector; FLAG (N); expressed in transfected cells; host or cells: AD293 cells
# T5 sequence (P43116 whole entry S86A): as the sequence (P43116 whole entry M116A) above, with S86A, A116M counted along it
# Procedure: as §1, §2, §3
# EP2 T82A = molecular target: T6, EP2 T82A (Homo sapiens, UniProt P43116, T82A); details: 1 h, single experiments 1st-3rd, Fig. 3D, read-out: % cAMP activity (normalized to WT)
# T6 construct: The full-length EP2 or EP4 was cloned into the pcDNA3.1 vector; FLAG (N); expressed in transfected cells; host or cells: AD293 cells
# T6 sequence (P43116 whole entry T82A): as the sequence (P43116 whole entry M116A) above, with T82A, A116M counted along it
# Procedure: as §1, §2, §3
# EP2 S308A = molecular target: T7, EP2 S308A (Homo sapiens, UniProt P43116, S308A); details: single experiments 1st-3rd
# T7 construct: The full-length EP2 or EP4 was cloned into the pcDNA3.1 vector; FLAG (N); expressed in transfected cells; host or cells: AD293 cells
# T7 sequence (P43116 whole entry S308A): as the sequence (P43116 whole entry M116A) above, with A116M, S308A counted along it
# Procedure: as §1, §2, §3
# EP2 WT = EP2 WT (Homo sapiens, UniProt P43116); parameters: The full-length EP2 or EP4 was cloned into the pcDNA3.1 vector; FLAG (N); expressed in transfected cells; host or cells: AD293 cells; details: for remaining activity at 0.1 µM / remaining activity at 0.01 µM / remaining activity at 0.001 µM / remaining activity at 0.0001 µM / remaining activity at 10 pM / remaining activity at 1 pM / remaining activity at 10 µM / remaining activity at 1 µM: 1 h; for remaining activity at 0.1 µM / remaining activity at 0.01 µM / remaining activity at 0.001 µM / remaining activity at 0.0001 µM / remaining activity at 10 pM / remaining activity at 1 pM / remaining activity at 10 µM / remaining activity at 1 µM / cAMP activity (∆pIC50 from EP2 WT): single experiments 1st-3rd
# EP2 WT, sequence (P43116 whole entry): as the sequence (P43116 whole entry M116A) above, with A116M counted along it
# Procedure: as §1, §2, §3
# [1] = 1 h, PF-04418948 log([M]) -7, Fig. 3D, read-out: % cAMP activity (normalized to WT)
# [2] = 1 h, PF-04418948 log([M]) -8, Fig. 3D, read-out: % cAMP activity (normalized to WT)
# [3] = 1 h, PF-04418948 log([M]) -10, Fig. 3D, read-out: % cAMP activity (normalized to WT)
# [4] = 1 h, PF-04418948 log([M]) -11, Fig. 3D, read-out: % cAMP activity (normalized to WT)
# [5] = 1 h, PF-04418948 log([M]) -9, Fig. 3D, read-out: % cAMP activity (normalized to WT)
# [6] = 1 h, PF-04418948 log([M]) -12, Fig. 3D, read-out: % cAMP activity (normalized to WT)
smiles,measurement,setting,value
COc1ccc2cc(OCC3(C(=O)O)CN(C(=O)c4ccc(F)cc4)C3)ccc2c1 [PF-04418948],remaining activity at 1 µM,EP2 M116A; PF-04418948 log([M]) -6,5.4%
same,remaining activity at 0.1 µM,EP2 M116A; PF-04418948 log([M]) -7,26.1%
same,remaining activity at 0.01 µM,EP2 M116A; PF-04418948 log([M]) -8,58.4%
same,remaining activity at 0.001 µM,EP2 M116A; PF-04418948 log([M]) -9,56.2%
same,remaining activity at 0.0001 µM,EP2 M116A; PF-04418948 log([M]) -10,64.8%
same,remaining activity at 10 pM,EP2 M116A; PF-04418948 log([M]) -11,75.1%
same,remaining activity at 1 pM,EP2 M116A; PF-04418948 log([M]) -12,77.8%
same,remaining activity at 100 µM,"EP4 WT; read-out: % cAMP activity EP4 (normalized to Grapiprant), ligand log([M]) -4.00",99.1%
same,remaining activity at […],"EP4 WT; read-out: % cAMP activity EP4 (normalized to Grapiprant), ligand log([M]) -4.70",107%
same,remaining activity at […],"EP4 WT; read-out: % cAMP activity EP4 (normalized to Grapiprant), ligand log([M]) -5.40",103%
same,remaining activity at […],"EP4 WT; read-out: % cAMP activity EP4 (normalized to Grapiprant), ligand log([M]) -6.10",106%
same,remaining activity at 0.03236 µM,"EP4 WT; read-out: % cAMP activity EP4 (normalized to Grapiprant), ligand log([M]) -7.49",93.7%
same,remaining activity at 0.001288 µM,"EP4 WT; read-out: % cAMP activity EP4 (normalized to Grapiprant), ligand log([M]) -8.89",94%
same,remaining activity at 1 µM,EP2 W186A; PF-04418948 log([M]) -6,7.94%
same,remaining activity at 0.1 µM,EP2 W186A; PF-04418948 log([M]) -7,18%
same,remaining activity at 0.01 µM,EP2 W186A; PF-04418948 log([M]) -8,24.6%
same,remaining activity at 0.001 µM,EP2 W186A; PF-04418948 log([M]) -9,23.9%
same,remaining activity at 0.0001 µM,EP2 W186A; PF-04418948 log([M]) -10,24.4%
same,remaining activity at 10 pM,EP2 W186A; PF-04418948 log([M]) -11,29.3%
same,remaining activity at 1 pM,EP2 W186A; PF-04418948 log([M]) -12,27.9%
same,remaining activity at 0.1 µM,EP2 S305A; [1],22.4%
same,remaining activity at 0.01 µM,EP2 S305A; [2],45.9%
same,remaining activity at 0.0001 µM,EP2 S305A; [3],47.9%
same,remaining activity at 10 pM,EP2 S305A; [4],41.3%
same,cAMP activity (∆pIC50 from EP2 WT),EP2 S305A; Fig. 3E,-1.170 and -1.396 and -1.144
same,remaining activity at 0.01 µM,EP2 S86A; [2],35%
same,remaining activity at 0.001 µM,EP2 S86A; [5],61.5%
same,remaining activity at 0.0001 µM,EP2 S86A; [3],63.4%
same,remaining activity at 10 pM,EP2 S86A; [4],75.5%
same,remaining activity at 1 pM,EP2 S86A; [6],72.4%
same,cAMP activity (∆pIC50 from EP2 WT),EP2 S86A; Fig. 3E,0.200 and 0.410 and 0.340
same,remaining activity at 1 µM,EP2 T82A; PF-04418948 log([M]) -6,9.17%
same,remaining activity at 0.1 µM,EP2 T82A; PF-04418948 log([M]) -7,19.3%
same,remaining activity at 0.01 µM,EP2 T82A; PF-04418948 log([M]) -8,47.4%
same,remaining activity at 0.001 µM,EP2 T82A; PF-04418948 log([M]) -9,55.3%
same,remaining activity at 0.1 µM,EP2 S308A; [1],27.6%
same,remaining activity at 0.01 µM,EP2 S308A; [2],78.6%
same,remaining activity at 0.001 µM,EP2 S308A; [5],89.1%
same,remaining activity at 0.0001 µM,EP2 S308A; [3],86.2%
same,remaining activity at 10 pM,EP2 S308A; [4],84.2%
same,remaining activity at 1 pM,EP2 S308A; [6],83.9%
same,cAMP activity (∆pIC50 from EP2 WT),EP2 S308A; Fig. 3E,-0.810 and -0.830 and -1.090
same,remaining activity at 0.1 µM,"EP2 WT; PF-04418948 log([M]) -7, Fig. 3D, read-out: % cAMP activity (normalized to WT)",5.55%
same,remaining activity at 0.01 µM,"EP2 WT; PF-04418948 log([M]) -8, Fig. 3D, read-out: % cAMP activity (normalized to WT)",44.3%
same,remaining activity at 0.001 µM,"EP2 WT; PF-04418948 log([M]) -9, Fig. 3D, read-out: % cAMP activity (normalized to WT)",82.7%
same,remaining activity at 0.0001 µM,"EP2 WT; PF-04418948 log([M]) -10, Fig. 3D, read-out: % cAMP activity (normalized to WT)",105%
same,remaining activity at 10 pM,"EP2 WT; PF-04418948 log([M]) -11, Fig. 3D, read-out: % cAMP activity (normalized to WT)",101%
same,remaining activity at 1 pM,"EP2 WT; PF-04418948 log([M]) -12, Fig. 3D, read-out: % cAMP activity (normalized to WT)",104%
same,remaining activity at 10 µM,"EP2 WT; ligand log([M]) -5, Fig. S7B, read-out: % cAMP activity (normalized to WT)",2.66%
same,remaining activity at 1 µM,"EP2 WT; ligand log([M]) -6, Fig. S7B, read-out: % cAMP activity (normalized to WT)",2.72%
same,remaining activity at 0.1 µM,"EP2 WT; ligand log([M]) -7, Fig. S7B, read-out: % cAMP activity (normalized to WT)",8.2%
same,remaining activity at 0.01 µM,"EP2 WT; ligand log([M]) -8, Fig. S7B, read-out: % cAMP activity (normalized to WT)",63.2%
same,remaining activity at 0.001 µM,"EP2 WT; ligand log([M]) -9, Fig. S7B, read-out: % cAMP activity (normalized to WT)",96.2%
same,remaining activity at 0.0001 µM,"EP2 WT; ligand log([M]) -10, Fig. S7B, read-out: % cAMP activity (normalized to WT)",92.4%
same,remaining activity at 10 pM,"EP2 WT; ligand log([M]) -11, Fig. S7B, read-out: % cAMP activity (normalized to WT)",103%
same,remaining activity at 1 pM,"EP2 WT; ligand log([M]) -12, Fig. S7B, read-out: % cAMP activity (normalized to WT)",101%
same,remaining activity at 10 µM,"EP2 WT; read-out: % cAMP activity on EP2 (normalized to PF-04418948), ligand log([M]) -5, Fig. S1A",2.66%
same,remaining activity at 1 µM,"EP2 WT; read-out: % cAMP activity on EP2 (normalized to PF-04418948), ligand log([M]) -6, Fig. S1A",2.72%
same,remaining activity at 0.1 µM,"EP2 WT; read-out: % cAMP activity on EP2 (normalized to PF-04418948), ligand log([M]) -7, Fig. S1A",8.2%
same,remaining activity at 0.01 µM,"EP2 WT; read-out: % cAMP activity on EP2 (normalized to PF-04418948), ligand log([M]) -8, Fig. S1A",63.2%
same,remaining activity at 0.001 µM,"EP2 WT; read-out: % cAMP activity on EP2 (normalized to PF-04418948), ligand log([M]) -9, Fig. S1A",96.2%
same,remaining activity at 0.0001 µM,"EP2 WT; read-out: % cAMP activity on EP2 (normalized to PF-04418948), ligand log([M]) -10, Fig. S1A",92.4%
same,remaining activity at 10 pM,"EP2 WT; read-out: % cAMP activity on EP2 (normalized to PF-04418948), ligand log([M]) -11, Fig. S1A",103%
same,remaining activity at 1 pM,"EP2 WT; read-out: % cAMP activity on EP2 (normalized to PF-04418948), ligand log([M]) -12, Fig. S1A",101%
same,antagonism profile EP2 versus EP4 (in words),"EP2 WT; cAMP accumulation assay upon PGE2 stimulation, Appendix Fig. S1A",selective antagonists of EP2; also recorded: highly selective for EP2 over EP4
same,cAMP activity (∆pIC50 from EP2 WT),EP2 WT; Appendix Fig. S7A,0.0005 and 0.053 and -0.059
same,cAMP activity (∆pIC50 from EP2 WT),EP2 WT; Fig. 3E,0.043 and 0.00333 and -0.047
